Results published in patent EP0643060A2, “Sulfonylbenzyl-substituted benzimidazoles, process for their preparation, and their pharmaceutical use” (BAYER AG, priority 1993, dated 1995).
Read-outs that look alike come from different tables or passages of the source.

Legend:
[1] = system: isolierten Aortenringen von Kaninchen; assay: Inhibition of angiotensin II-induced contraction of isolated rabbit aortic rings; format: cell-based; conditions: isolated rabbit aortic rings in vitro; effect at 3rd (submaximal) agonist concentration; read-out: IC50 gegen Kontraktionen, induziert durch AII
Procedure: Kaninchen beiderlei Geschlechts werden durch Nackenschlag betäubt und entblutet, oder fallweise mit Nembutal (ca. 60 - 80 mg/kg i.v.) narkotisiert und durch Öffnung des Thorax getötet. Die Thoraxaorta wird entnommen, von anhaftendem Bindegewebe befreit, in 1,5 mm breite Ringsegmente geteilt und einzeln unter einer Anfangsbelastung von ca. 3,5 g in 10 ml Organbäder mit auf 37°C temperierter, Carbogen-begaster Krebs-Henseleit-Nährlösung folgender Zusammensetzung: 119 mmol/l NaCl; 2,5 mmol/l CaCl₂ x 2 H₂O; 1,2 mmol/l KH₂PO₄; 10 mmol/l Glucose; 4,8 mmol/l KCl; 1,4 mmol/l MgSO₄ x 7 H₂O und 25 mmol/l NaHCO₃ verbracht.
Die Kontraktionen werden isometrisch durch Statham UC2-Zellen über Brückenverstärker (ifd Mülheim bzw. DSM Aalen) erfaßt und mittels A/D-Wandler (System 570, Keithley München) digitalisiert sowie ausgewertet. Die Durchführung von Agonistdosiswirkungskurven (DWK) erfolgt stündlich. Mit jeder DWK werden 3 bzw. 4 Einzelkonzentrationen im 4 min-Abstand in die Bäder appliziert. Nach Ende der DWK und darauffolgender Auswaschzyklen (16 mal jeweils ca. 5 sec/min mit der o.a. Nährlösung) schließt sich eine 28-minütige Ruhe- bzw. Inkubationsphase an, innerhalb derer die Kontraktionen in der Regel wieder den Ausgangswert erreichen.
Die Höhe der im Normalfall 3. […]

Angiotensin II-Rezeptor = target: T1, Angiotensin II-Rezeptor (Bos taurus, UniProt P25104); assay: Angiotensin II receptor binding on membrane fractions of bovine adrenal cortex (3H-angiotensin II); design: species or system Rind; conditions: bovine adrenal cortex membranes, 3H-Angiotensin II 3-5 nM, 60 min, room temperature
T1 construct: an partiell gereinigten Membranfraktionen boviner NNR mit radioaktivem Angiotensin II; from tissue; host or cells: bovine adrenal cortex, partially purified membrane fractions
T1 sequence (P25104 1-359): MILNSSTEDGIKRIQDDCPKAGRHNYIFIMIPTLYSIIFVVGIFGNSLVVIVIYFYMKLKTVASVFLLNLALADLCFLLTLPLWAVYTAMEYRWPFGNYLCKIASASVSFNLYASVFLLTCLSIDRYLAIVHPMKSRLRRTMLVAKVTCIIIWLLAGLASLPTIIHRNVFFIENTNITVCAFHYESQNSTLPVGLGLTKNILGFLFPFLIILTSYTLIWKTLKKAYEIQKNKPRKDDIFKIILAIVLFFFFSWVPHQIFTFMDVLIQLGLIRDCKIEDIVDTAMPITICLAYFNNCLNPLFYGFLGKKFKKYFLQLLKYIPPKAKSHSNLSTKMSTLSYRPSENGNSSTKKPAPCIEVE
Procedure: Nebennierenrinden vom Rind (NNR), die frisch entnommen und sorgfältig von Mark von Kapsel befreit sind, werden in Sucrose-Lösung (0,32 M) mit Hilfe eines Ultra-Turrax (Janke & Kunkel, Staufen i.B.) zu grobem Membran-Homogenat zerkleinert und in zwei Zentrifugationsschritten zu Membranfraktionen partiell aufgereinigt. Die Untersuchungen zur Rezeptor-Bindung werden an partiell gereinigten Membranfraktionen boviner NNR mit radioaktivem Angiotensin II in einem Assay-Volumen von 0,25 ml durchgeführt, das im einzelnen die partiell gereinigten Membranen (50 - 80 µg), ³H-Angiotensin II (3-5 nM), Test-Pufferlösung (50 mM Tris, pH 7,2, 5 mM MgCl₂ sowie die zu untersuchenden Substanzen enthält. Nach einer Inkubationszeit von 60 min bei Raumtemperatur wird die nicht gebundene Radioaktivität der Proben mittels angefeuchteter Glasfaserfilter (Whatman GF/C) separiert und die gebundene Radioaktivität nach Waschung des Proteins mit eiskalter Pufferlösung (50 mM Tris/HCl, pH 7,4, 5% PEG 6000) in einem Szintillationscocktail […] gemessen. Die Analyse der Rohdaten erfolgte mit Computer-Programmen zu Ki- bzw. IC₅₀-Werten (Ki: für die verwendete Radioaktivität korrigierte IC₅₀-Werte; IC₅₀-Werte: Konzentration bei der die zu untersuchende Substanz eine 50%ige Hemmung der spezifischen Bindung des Radioliganden bewirkt).

Question: `CCCCc1nc2cccc(C(=O)OC)c2n1Cc1ccc(S(=O)(=O)N2CCCC2C(=O)O)cc1Cl` (stereo in doubt) [Beispiel 2, (S)-2-Butyl-1-[3-chlor-1-(N-2'-carboxy-pyrrolidinyl)-sulfonyl]-7-methoxycarbonyl-benz[d]imidazol] was tested. Which IC50 [1] did it give?
Answer: Its IC50 is 46 nM.

Question: `CCCCc1nc2cccc(C(=O)O)c2n1Cc1ccc(S(=O)(=O)N2CCC[C@H]2C(=O)O)cc1Cl` [Beispiel 3, (S)-2-Butyl-7-carboxy-1-[3-chlor-1-(N-2-carboxy-pyrrolidinyl)-sulfonyl]-benz[d]imidazol] was tested. Which Ki (Angiotensin II-Rezeptor) did it give?
Answer: The Ki was 48 nM.

Question: `CCCCc1nc2cccc(C(=O)OC)c2n1Cc1ccc(S(=O)(=O)N2CCC[C@H]2C(=O)OC(C)(C)C)cc1F` [Beispiel 4] was tested. Which Ki (Angiotensin II-Rezeptor; read-out: Ki) did it give?
Answer: Its Ki is 735 nM.

Question: How did the Ki (Angiotensin II-Rezeptor) turn out when `CCCCc1nc2cccc(C(=O)O)c2n1Cc1ccc(S(=O)(=O)N2CCC[C@H]2C(=O)O)cc1Cl` [Beispiel 7, (S)-2-Butyl-7-carboxy-1-[3-chlor-1-(N-2-carboxypyrrolidinyl)-sulfonyl]benz[d]imidazol Bis Kaliumsalz] was run?
Answer: Its Ki is 260 nM.
